The values below come from patent publication US20250353816A1, “QUINOLINES AS MODULATORS OF POLRMT” (Pretzel Therapeutics, Inc., priority 2024, published 2025).

Chain of POLRMT (O00411 42-1230): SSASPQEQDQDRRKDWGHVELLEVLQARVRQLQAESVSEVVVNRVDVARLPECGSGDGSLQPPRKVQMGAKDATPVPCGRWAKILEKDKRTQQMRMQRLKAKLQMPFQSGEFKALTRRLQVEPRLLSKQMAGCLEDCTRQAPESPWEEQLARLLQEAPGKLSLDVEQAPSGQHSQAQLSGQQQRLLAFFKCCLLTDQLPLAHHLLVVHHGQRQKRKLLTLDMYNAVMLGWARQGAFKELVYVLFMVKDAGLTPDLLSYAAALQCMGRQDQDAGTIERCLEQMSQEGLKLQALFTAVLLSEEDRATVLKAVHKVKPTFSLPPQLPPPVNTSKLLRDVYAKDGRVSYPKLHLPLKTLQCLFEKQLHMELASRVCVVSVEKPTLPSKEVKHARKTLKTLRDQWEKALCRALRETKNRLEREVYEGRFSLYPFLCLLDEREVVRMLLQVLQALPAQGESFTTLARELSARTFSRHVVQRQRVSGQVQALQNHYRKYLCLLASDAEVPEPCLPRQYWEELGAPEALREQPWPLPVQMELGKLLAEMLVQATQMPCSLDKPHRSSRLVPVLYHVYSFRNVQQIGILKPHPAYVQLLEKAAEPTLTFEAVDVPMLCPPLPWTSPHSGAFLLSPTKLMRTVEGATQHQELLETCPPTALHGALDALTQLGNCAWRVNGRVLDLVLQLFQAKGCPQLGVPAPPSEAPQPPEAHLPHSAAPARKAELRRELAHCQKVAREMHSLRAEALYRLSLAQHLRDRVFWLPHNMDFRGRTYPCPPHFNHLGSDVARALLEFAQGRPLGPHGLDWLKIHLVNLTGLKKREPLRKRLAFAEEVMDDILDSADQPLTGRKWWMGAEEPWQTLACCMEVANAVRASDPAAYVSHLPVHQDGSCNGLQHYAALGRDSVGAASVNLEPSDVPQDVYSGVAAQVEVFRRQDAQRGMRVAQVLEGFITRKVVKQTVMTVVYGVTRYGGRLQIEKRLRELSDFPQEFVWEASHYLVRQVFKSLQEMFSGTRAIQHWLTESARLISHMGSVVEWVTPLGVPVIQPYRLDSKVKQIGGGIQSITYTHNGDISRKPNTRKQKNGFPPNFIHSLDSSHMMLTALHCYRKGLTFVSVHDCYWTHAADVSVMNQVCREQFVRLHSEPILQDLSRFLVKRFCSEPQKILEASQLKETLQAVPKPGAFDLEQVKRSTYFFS

The target in the experiment is POLRMT (Homo sapiens (Human), UniProt O00411). Kind of experiment: homogeneous TR-FRET assay of mitochondrial transcription (inhibition of POLRMT). It counts as biochemical. The settings on record: 7.5 nM POLRMT, 15 nM TFB2M, 30 nM TFAM, 60 minutes at 37° C. Here is the method:
The inhibitory activity of the compounds of the present invention against POLRMT were determined by assays based on Bergbrede, T., et al., “An adaptable high-throughput technology enabling the identification of specific transcription modulators,” SLAC Discov., 22, 378-386 (2017).
The ability of some compounds of the present invention to inhibit POLRMT were determined in a homogeneous TR-FRET Assay using high-throughput screening in a 384-well plate format. This method is used to monitor the activity of mitochondrial transcription through measurement of its product, a 407 bp long RNA transcript. Detection of the product is facilitated by hybridization of two DNA-oligonucleotide probes to specific and adjacent sequences within the RNA product sequence. Upon annealing of the probes, two fluorophores are coupled directly to an acceptor nucleotide probe (ATTO647, 5′), or introduced via a coupled streptavidin with a biotinylated donor nucleotide probe (Europium cryptate) that is brought into sufficient proximity to serve as a fluorescence-donor-acceptor pair. Thus, a FRET signal at 665 nm is generated upon excitation at 340 nm.
Proteins used as transcription factors (POLRMT: NP_005026.3, TFAM: NP_003192.1, TFB2M: NP_071761.1) are diluted from their stocks to working concentrations of 1 μM, 20 μM and 4 μM respectively, in a dilution buffer containing 20 mM Tris-HCl (pH 8.0), 200 mM NaCl, 10% (v/v) glycerol, 1 mM Dithiothreitol (DTT), 0.5 mM EDTA.
DNA template is a pUC18 plasmid with the mitochondrial light strand promotor sequence (1-477) cloned between HindIII and BamHI sites. The DNA template is restriction linearized proximal to the promotor 3′-end (pUC-LSP).
The reaction mixture (10 uL) containing 7.5 nM POLRMT, 15 nM of TFB2M, 30 nM of TFAM, 0.5 nM of DNA template and 500 μM nucleotide triphosphate mix (NTPs) in a reaction buffer (containing 10 mM Tris-HCl (pH 7.5), 10 mM MgCl2, 40 mM NaCl, 10 mM DTT, 0.005% (w/v) Tween-20, 160 units/ml Rnase inhibitor and 0.1 mg/mL BSA) are dispensed to compounds in microplates, using a Thermo Multidrop® dispenser, and incubated at 37° C. in a VWR INCU-Line incubator for 60 minutes after mixing. No nucleotide triphosphate mix is added to negative control samples. Microplates with compounds to be tested in the assay are prepared from 10 mM compound stocks in 100% DMSO, equal amounts of DMSO without any compound are added to positive control and negative control samples.
During the incubation, a mix of the detection reagents is prepared in a buffer such that the enzymatic reaction is terminated due to chelating of Mg-ions and increased ionic strength, containing 50 mM Tris-HCl (pH 7.5), 700 mM NaCl, 20 mM EDTA, and 0.01% (w/v) Tween-20. Europium-streptavidin is pre-incubated with a 200-fold molar excess of a random sequence oligonucleotide to block unspecific binding of oligo, for two hours at ambient temperature in the dark. Afterwards, the blocked Europium-streptavidin is kept on ice until use.
At the end of the enzymatic reaction time, 5 μL detection oligo mix in the detection buffer is added, and assay plates are mixed and kept at ambient temperature for one hour, protected from light. The concentration of the Acceptor nucleotide oligo (e.g., ATTO647N-5′-[…]-3′ (SEQ ID NO: 1)) and Donor nucleotide oligo (e.g., bio-5′-AACACATCTCT(-bio)GCCAAACCCCA-bio-3′ (SEQ ID NO: 2)) in each assay well is 1 nM, and 3 nM, respectively.
After incubation with oligo mix, 5 μL of pre-blocked Europium-streptavidin reagent is dispensed to each assay well, assay plates are again mixed and kept at ambient temperature for one hour, protected from light.
The generated signal is measured with BMG Pherastar microtiter plate reader with a TRF light unit, using excitation at 340 nm, an integration time of 200 μs, and a delay time of […], before detection at 620 nm and 665 nm. The ratio of donor- and acceptor-fluorescence is used as a measure of the generated transcript product (i.e. enzymatic activity).
`COC(C)c1ccc2c(-c3ccccc3C)ccnc2c1` (stereo not drawn) [Example 27, 7-(1-methoxyethyl)-4-(o-tolyl)quinoline] had an IC50 of 8 µM.

On to `COC(=O)NCc1ccc2c(-c3ccccc3C)ccnc2c1` [Example 15, methyl ((4-(o-tolyl)quinolin-7-yl)methyl)carbamate], for which inhibition was half-maximal at 59 µM (IC50).

Molecule `Cc1ccccc1-c1ccnc2cc(CC(=O)N(C)C)ccc12` [Example 43, N,N-dimethyl-2-(4-(o-tolyl)quinolin-7-yl)acetamide] displayed an IC50 of over 100 µM.

The molecule `Cc1ccccc1-c1ccnc2cc(CC(N)=O)ccc12` [Example 42, 2-(4-(o-tolyl)quinolin-7-yl)acetamide] showed an IC50 of over 100 µM.

In turn, `CNC(=O)Cc1ccc2c(-c3ccccc3C)ccnc2c1` [Example 44, N-methyl-2-(4-(o-tolyl)quinolin-7-yl)acetamide] displayed an IC50 of over 100 µM.

`Cc1ccccc1-c1ccnc2cc(NC(C)C(=O)N3CCOCC3)ccc12` (single isomer, unassigned) [Example 51, 1-morpholino-2-((4-(o-tolyl)quinolin-7-yl)amino)propan-1-one] gave an IC50 of over 100 µM.

Turning to `Cc1ccccc1-c1ccnc2cc(NC(C)C(=O)N(C)C)ccc12` (single isomer, unassigned) [Example 49, N,N-dimethyl-2-((4-(o-tolyl)quinolin-7-yl)amino)propanamide], inhibition was half-maximal at 10 µM (IC50).

Turning to `Cc1ccccc1-c1ccnc2cc(CC(=O)O)ccc12` [Example 29, 2-(4-(o-tolyl)quinolin-7-yl)acetic acid], half-maximal inhibition (IC50) required 97 µM.

`Cc1ccccc1-c1ccnc2cc(C(=O)N3CCN(C)CC3)ccc12` [Example 8, (4-methylpiperazin-1-yl)-[4-(o-tolyl)-7-quinolyl]methanone] showed an IC50 of over 100 µM.

On to `CC(=O)N1CCN(C(=O)c2ccc3c(-c4ccccc4C)ccnc3c2)CC1` [Example 9, 1-(4-(4-(o-tolyl)quinoline-7-carbonyl)piperazin-1-yl)ethan-1-one], for which the IC50 is over 100 µM.

In turn, `Cc1ccccc1-c1ccnc2cc(C(C)O)ccc12` (stereo not drawn) [Example 18, 1-(4-(o-tolyl)quinolin-7-yl)ethan-1-ol] displayed an IC50 of 36 µM.

`Cc1ccccc1-c1ccnc2cc(CN3CCN(C)CC3)ccc12` [Example 28, 7-((4-methylpiperazin-1-yl)methyl)-4-(o-tolyl)quinoline]: the concentration for half-maximal inhibition (IC50) is over 100 µM.

`CNC(=O)c1ccc2c(-c3ccccc3C)ccnc2c1` [Example 3, N-methyl-4-(o-tolyl)quinoline-7-carboxamide] returned an IC50 of 26 µM.

Molecule `Cc1ccccc1-c1ccnc2cc(CN3CCCC3=O)ccc12` [Example 25] yielded an IC50 of over 100 µM.

Take `Cc1ccccc1-c1ccnc2cc(CN(C)C(=O)C3CCCC3)ccc12` [Example 24, N-methyl-N-((4-(o-tolyl)quinolin-7-yl)methyl)cyclopentanecarboxamide]: 10 µM corresponded to half-maximal inhibition (IC50).

In turn, `Cc1ccccc1-c1ccnc2cc(C(N)=O)ccc12` [Example 2, 4-(o-tolyl)quinoline-7-carboxamide] returned an IC50 of over 100 µM.

The molecule `COCc1ccc2c(-c3ccccc3C)ccnc2c1` [Example 19, 7-(methoxymethyl)-4-(o-tolyl)quinoline] came in with an IC50 of 5 µM. That is a single-digit micromolar value.

Consider `Cc1ccccc1-c1ccnc2cc(C(C)OCC(=O)O)ccc12` (stereo not drawn) [Example 54, 2-(1-(4-(o-tolyl)quinolin-7-yl)ethoxy)acetic acid], for which the IC50 is over 100 µM.

As to `Cc1ccccc1-c1ccnc2cc(CC(=O)N3CCOCC3)ccc12` [Example 36, 1-morpholino-2-(4-(o-tolyl)quinolin-7-yl)ethan-1-one], the IC50 was over 100 µM.

For `Cc1ccccc1-c1ccnc2cc(N(C)C)ccc12` [Example 16, N,N-dimethyl-4-(o-tolyl)quinolin-7-amine], the IC50 was 7 µM.

Take `Cc1ccccc1-c1ccnc2cc(C(=O)N3CCOCC3)ccc12` [Example 7, morpholino-[4-(o-tolyl)-7-quinolyl]methanone]: the half-maximal inhibitory concentration (IC50) was over 100 µM.

For the molecule `Cc1ccccc1-c1ccnc2cc(NC(C)C(=O)N3CCCCC3)ccc12` (single isomer, unassigned) [Example 52, 1-(piperidin-1-yl)-2-((4-(o-tolyl)quinolin-7-yl)amino)propan-1-one], the IC50 is over 100 µM.

As for `COC(=O)c1ccc2c(-c3ccccc3C)ccnc2c1` [Example 1, methyl 4-(o-tolyl)quinoline-7-carboxylate], the IC50 worked out at 3 µM. In other words, the single-digit micromolar range.

For the molecule `Cc1ccccc1-c1ccnc2cc(CNC(=O)C3CCCC3)ccc12` [Example 13, N-((4-(o-tolyl)quinolin-7-yl)methyl)cyclopentanecarboxamide], the IC50 came out at 29 µM. This IC50 lies about 9.7-fold higher than the previous one.

Take `Cc1ccccc1-c1ccnc2cc(NC(C)C(=O)N3CCCCC3)ccc12` (single isomer, unassigned) [Example 53, 1-(piperidin-1-yl)-2-((4-(o-tolyl)quinolin-7-yl)amino)propan-1-one]: the IC50 is 3 µM.

In turn, `Cc1ccccc1-c1ccnc2cc(CC(C)C(=O)N3CCCCC3)ccc12` (single isomer, unassigned) [Example 35, 2-methyl-1-(piperidin-1-yl)-3-(4-(o-tolyl)quinolin-7-yl)propan-1-one] gave an IC50 of 70 µM.

Consider `Cc1ccccc1-c1ccnc2cc(CC(C)C(=O)N3CCCCC3)ccc12` (single isomer, unassigned) [Example 34, 2-methyl-1-(piperidin-1-yl)-3-(4-(o-tolyl)quinolin-7-yl)propan-1-one], for which the IC50 came to 2 µM.

`CC(=O)N1CCN(C(=O)Cc2ccc3c(-c4ccccc4C)ccnc3c2)CC1` [Example 40, 1-(4-acetylpiperazin-1-yl)-2-(4-(o-tolyl)quinolin-7-yl)ethan-1-one] registered an IC50 of over 100 µM.

For `Cc1ccccc1-c1ccnc2cc(CC(=O)NC3CC3)ccc12` [Example 30, N-cyclopropyl-2-(4-(o-tolyl)quinolin-7-yl)acetamide], the IC50 is 91 µM.

`Cc1ccccc1-c1ccnc2cc(NC(C)C(=O)N(C)C)ccc12` (single isomer, unassigned) [Example 48, N,N-dimethyl-2-((4-(o-tolyl)quinolin-7-yl)amino)propanamide] displayed an IC50 of over 100 µM.

`Cc1ccccc1-c1ccnc2cc(CO)ccc12` [Example 10, (4-(o-tolyl)quinolin-7-yl)methanol]: the IC50 came out at 50 µM.

In turn, `Cc1ccccc1-c1ccnc2cc(CNC(=O)OC(C)(C)C)ccc12` [Example 12, tert-butyl ((4-(o-tolyl)quinolin-7-yl)methyl)carbamate] showed an IC50 of 15 µM.

`Cc1ccccc1-c1ccnc2cc(C(=O)N(C)Cc3ccccc3)ccc12` [Example 5, N-benzyl-N-methyl-4-(o-tolyl)quinoline-7-carboxamide] gave an IC50 of over 100 µM.

Regarding `CNC(=O)COC(C)c1ccc2c(-c3ccccc3C)ccnc2c1` (stereo not drawn) [Example 57, N-methyl-2-(1-(4-(o-tolyl)quinolin-7-yl)ethoxy)acetamide], the IC50 is over 100 µM.

On to `Cc1ccccc1-c1ccnc2cc(C(=O)N(C)C)ccc12` [Example 4, N,N-dimethyl-4-(o-tolyl)quinoline-7-carboxamide], for which the IC50 is over 100 µM.

In turn, `Cc1ccccc1-c1ccnc2cc(C(=O)NCc3ccccc3)ccc12` [Example 6, N-benzyl-4-(o-tolyl)quinoline-7-carboxamide] showed an IC50 of 90 µM.
